Here are results for one molecule from patent publication US8211909B2, “Treatment of antibiotic-resistant bacteria infection” (TaiGen Biotechnology Co., Ltd., priority 2008, dated 2012).

SMILES strings stand for the structures. ≈ marks a conversion by molar mass, not a printed value. Read-outs that look alike come from different tables or passages of the source.

The test system of test [1] is Methicillin-resistant Staphylococcus aureus (MRSA) isolates. Nature of the test: MIC by broth microdilution (CLSI) against CAN-ICU MRSA isolates. The test is classed as cell-based. As to conditions: for MIC50 / MIC90 / MIC: Staphylococcus aureus; for MIC50: read-out: MIC50; for MIC90: read-out: MIC90. An excerpt: MRSA isolates (n=193) were obtained as part of the Canadian National Intensive Care Unit (CAN-ICU) Study. 19 medical centers from all regions of Canada with active ICUs participated in the CAN-ICU study included. They were requested to only obtain “clinically significant” specimens from patients with a presumed infectious disease. Surveillance swabs, eye, ear, nose and throat swabs were excluded. Anaerobic organisms and fungal organisms were also excluded.
From September 2005-June 2006 (inclusive), each center collected a maximum of 300 consecutive pathogens isolated from blood, urine, tissue/wound, and respiratory specimens (one pathogen per cultured site per patient) of ICU patients. These isolates were shipped to the reference laboratory (Health Sciences Centre, Winnipeg, Canada) on Amies charcoal swabs, subcultured in appropriate media, and stocked in skim milk at −80° C.
All isolates underwent mecA PCR, as well as molecular characterization (including PVL analysis and fingerprinting), as previously described, to assess whether they were community-associated or healthcare-associated (Christianson et al., J Clin Microbiol. 2007, 45 (6): 1904-11; Mulvey et al., J Clin. Microbiol. 2001, 39(10): 3481-5; Mulvey et al., Emerg Infect Dis. 2005,11(6): 844-50; Oliveira et al., Antimicrob Agents Chemother. 2002, 46(7): 2155-61). The isolates were also subtyped using pulsed-field gel electrophoresis (PFGE) following the Canadian standardized protocol as previously described (Mulvey et al., J Clin Microbiol. 2001, 39(10): 3481-5). Their PFGE fingerprints thus obtained were analyzed with BioNumerics v3.5 (Applied Maths St. Marten-Latem, Belgium) using a position tolerance of 1.0 and an optimization of 1.0. Strain relatedness was determined as previously described (Tenover et al., 1995). The fingerprints of the isolates were compared to the national MRSA fingerprint database and were grouped into one of 10 Canadian epidemic MRSA (CMRSA-1, CMRSA-2, etc) as previously described (Mulvey et al., Emerg Infect Dis. 2005,11(6):844-50).
Compound 1 and other antibiotics were tested for their inhibitory activity against the MRSA isolates using the broth microdilution guidelines as stipulated by the Clinical and Laboratory Standards Institute.

For test [2], the system named is Vancomycin-resistant E. faecium. Nature of the test: MIC by agar dilution (CLSI-M100-S18), Taiwan Enterococci isolates. The test is classed as cell-based, Enterococcus faecium. How it is done:
Compound 1 was tested for its inhibitory effect against multidrug-resistant Methicillin-resistant Staphylococcus aureus and Enterococci obtained by 10 medical centers in all regions of Taiwan. MICs were determined using the agar dilution methods recommended by the Clinical and Laboratory Standards Institute (CLSI-M100-S18).

Setting [3] is: MRSA / USA100, USA 100/800 (HA-MRSA).
Where [4] appears, read: MRSA / USA200, USA 200 (HA-MRSA).
Where [5] appears, read: MRSA / USA300, USA 300 (CA-MRSA).
The mark [6] stands for this setting: MRSA / USA400, USA 400 (CA-MRSA).
[7] abbreviates: MRSA / USA600, USA 600 (HA-MRSA).
The mark [8] stands for this setting: Enterococcus faecium, Vancomycin-resistant E. faecium (n = 78).

For `COc1c(N2C[C@@H](C)C[C@H](N)C2)ccc2c(=O)c(C(=O)O)cn(C3CC3)c12` [Compound 1, (3S,5S)-7-[3-amino-5-methyl-piperidinyl]-1-cyclopropyl-1,4-dihydro-8-methoxy-4-oxo-3-quinolinecarboxylic acid], in test [1] (CA-MRSA vs HA-MRSA strains), the “activity against community-associated versus healthcare-associated MRSA strains (in words)” value is “more active against community-associated-MRSA strains than healthcare-associated-MRSA strains”. In addition, in test [1] (MRSA isolates), the “inhibition of MRSA (in words)” value is listed as “effectively inhibited”. In addition, the MIC50 worked out at 4 µg/mL (≈ 10.8 µM) in test [1] (setting [3]); 2 µg/mL (≈ 5.38 µM) in test [1] (setting [4]); 0.5 µg/mL (≈ 1.35 µM) in test [1] (setting [5]); 0.06 µg/mL (≈ 0.162 µM) in test [1] (setting [6]); 2 µg/mL (≈ 5.38 µM) in test [1] (setting [7]); 4 µg/mL (≈ 10.8 µM) in test [1] (MRSA (n = 193)). In addition, in test [2] (setting [8]), the MIC50 was determined as 4 µg/mL (≈ 10.8 µM). For the same molecule, the MIC90 in test [1] (setting [3]) was greater than 4 µg/mL; in test [1] (setting [4]), 2 µg/mL (≈ 5.38 µM); in test [1] (setting [5]) it was 0.5 µg/mL (≈ 1.35 µM); in test [1] (setting [6]) it was 0.06 µg/mL (≈ 0.162 µM); in test [1] (setting [7]), 2 µg/mL (≈ 5.38 µM); in test [1] (MRSA (n = 193)) it was greater than 4 µg/mL. In test [2] (setting [8]), this molecule displayed an MIC90 of 16 µg/mL (≈ 43.1 µM). Also, the MIC in test [1] (MRSA (n = 193), read-out: MIC Range Max) is greater than 4 µg/mL; in test [1] (MRSA (n = 193), read-out: MIC Range Min), 0.03 µg/mL (≈ 0.0808 µM). For the same molecule, in test [2] (Vancomycin-resistant E. faecium (n = 78)), the “MIC Range” value lay within 0.06 to 16 µg/mL. Also, in test [2] (Vancomycin-resistant Enterococcus faecium), the “inhibition (in words)” value is “effective”.
